Measurements from US20160009751A1, “C-19 HYDROXY PREGNENES” (LEO Pharma A/S, priority 2014, published 2016).

Columns and labels:
[1] = target: T1, mineralocorticoid receptor (MR) (Homo sapiens, UniProt P08235); assay: Mineralocorticoid receptor (MR) antagonism assay (GeneBLAzer MR DA, beta-lactamase reporter); assay type: cell-based; details: 0.14 nM-1 uM test compound, 10 nM aldosterone; relative IC50; read-out: Mineral corticoid receptor (MR) antagonism; Rel IC50
T1 construct: UAS-driven beta-lactamase reporter
T1 sequence (P08235 726-984 limits assumed): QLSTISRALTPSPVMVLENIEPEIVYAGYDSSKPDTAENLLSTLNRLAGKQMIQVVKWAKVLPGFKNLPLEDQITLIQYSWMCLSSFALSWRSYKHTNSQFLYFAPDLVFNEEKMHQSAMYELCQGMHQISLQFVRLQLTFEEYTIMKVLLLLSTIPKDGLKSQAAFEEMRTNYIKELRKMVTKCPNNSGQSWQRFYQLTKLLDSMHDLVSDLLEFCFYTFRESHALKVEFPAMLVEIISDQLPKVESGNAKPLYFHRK
Procedure: Agonistic and antagonistic interaction with the mineralocorticoid receptor was determined using the GeneBLAzer® MR DA Assay Kit (Life Technologies, catalogue number K1409) in a 96-well format according to the manufacturer's instructions. For determination of MR agonistic effect, cells were incubated with 0.14 nM-1 uM of test compound; the MR agonist aldosterone was included as a positive control in the same concentration range. After 16 h incubation, assay substrate (LiveBLAzer™-FRET B/G) was added to all wells and cells were incubated for 2 h followed by fluorometric detection (409/447 nm excitation and emission wavelength, respectively) of substrate conversion by beta-lactamase.
After 0.5 h, 10 nM of the MR agonist aldosterone was added to all wells and cells were incubated for another 15.5 h. After that, assay substrate (LiveBLAzer™-FRET B/G) was added to all wells and cells were incubated for 2 h followed by fluorometric detection (409/447 nm excitation and emission wavelength, respectively) substrate conversion by beta lactamase.

[2] = tested on: Interleukin-12B (IL-12B) release from primary human monocytes (PBMC); assay: Interleukin-12B (IL-12B) release from LPS-stimulated primary human monocytes (PBMC); assay type: cell-based; details: 100 ng/ml LPS for 18 h, ELISA, relative IC50, read-out: Interleukin-12B (IL-12B), Rel IC50
Text: The assay was adopted from a previously reported method (Schäcke et al, Br 3 Pharmacol (2009); 158(4): 1088-103) and is based on PBMC isolated from human blood. Stimulation of these cells with lipopolysaccharide (LPS) induces—among many other processes—the synthesis and secretion of the cytokine IL-12B. Both steroidal (glucocorticoids) and non-steroidal glucocorticoid receptor agonists act anti-inflammatory—e.g. by preventing DNA-binding of inflammatory transcription factors like AP-1 or NFkB—resulting in decreased synthesis/secretion of IL12B.
For compound testing, frozen stocks of PBMC were thawed, seeded in 96-well plates (1.2E5 cells/well) and then incubated in RPMI-1640 culture medium with 100 ng/ml LPS for 18 h with or without test compounds (pre-incubation with reference/test compounds for 1 h before addition of LPS). Then, IL-12B concentration in the cell culture supernatants was detected by hIL-12B-specific ELISA (Quantikine® human IL-12 p40 Immunoassay, R&D Systems Cat #SP400).

[3] = target: T2, recombinant glucocorticoid receptor (GR) (Homo sapiens, UniProt P04150); assay: Glucocorticoid receptor (GR) competitive binding assay (PolarScreen, fluorescence polarization); details: competition with Fluormone GS1, 2 hours at room temperature; relative IC50; read-out: GR binding; Rel IC50
T2 sequence (P04150 1-777): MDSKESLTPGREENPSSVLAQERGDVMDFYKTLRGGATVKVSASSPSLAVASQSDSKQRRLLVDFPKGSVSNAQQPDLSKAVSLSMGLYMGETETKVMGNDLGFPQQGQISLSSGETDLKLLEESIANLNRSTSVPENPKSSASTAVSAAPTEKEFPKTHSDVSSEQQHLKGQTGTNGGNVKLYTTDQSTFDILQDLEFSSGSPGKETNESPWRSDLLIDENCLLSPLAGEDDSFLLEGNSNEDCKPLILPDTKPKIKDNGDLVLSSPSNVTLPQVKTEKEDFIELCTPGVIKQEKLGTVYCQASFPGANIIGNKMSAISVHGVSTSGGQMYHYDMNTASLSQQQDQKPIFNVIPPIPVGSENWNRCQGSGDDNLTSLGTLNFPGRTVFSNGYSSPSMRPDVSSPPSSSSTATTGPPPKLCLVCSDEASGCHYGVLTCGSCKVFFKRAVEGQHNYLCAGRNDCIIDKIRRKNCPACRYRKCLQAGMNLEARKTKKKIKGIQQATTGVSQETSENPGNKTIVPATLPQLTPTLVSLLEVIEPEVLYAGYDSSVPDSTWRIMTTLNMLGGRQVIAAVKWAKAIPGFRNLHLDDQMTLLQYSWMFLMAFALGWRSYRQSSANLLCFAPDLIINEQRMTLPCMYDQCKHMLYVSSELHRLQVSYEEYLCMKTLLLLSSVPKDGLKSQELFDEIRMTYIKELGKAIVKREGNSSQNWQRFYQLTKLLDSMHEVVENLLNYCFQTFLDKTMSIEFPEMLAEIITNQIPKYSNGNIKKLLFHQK
Procedure: Glucocorticoid receptor binding was determined by competitive receptor binding assay using the PolarScreen™ Glucocorticoid Receptor Competitor Assay Kit, Green (Life Technologies, catalogue number A15897) in a 384-well format according to the manufacturer's instructions. Briefly, serial dilutions of test and reference compounds were prepared in 384-well plates. Subsequently, the steroidal competitor Fluormone™ GS1 and recombinant glucocorticoid receptor (GR) were added to all wells and the plate was incubated for 2 hours at room temperature and protected from light. Finally, polarization values in each well were determined by reading the plate in an EnVision (PerkinElmer) device.

IC50 [1]	SMILES	IC50 [2]	IC50 [3]
137 nM	CCCCC(=O)O[C@]1(C(=O)CO)[C@@H](C)C[C@H]2[C@@H]3CCC4=CC(=O)C=C[C@]4(C)[C@@]3(F)[C@@H](O)C[C@@]21C [Bethamethasone valerate]	< 1 nM	7 nM
	CCC(=O)O[C@]1(C(=O)CCl)CC[C@H]2[C@@H]3C[C@@H](F)C4=CC(=O)CC[C@]4(CO)[C@H]3[C@@H](O)C[C@@]21C [Compound 2, (6R,8S,9S,10S,11S,13S,14S,17R)-17-(2-chloroacetyl)-6-fluoro-11-hydroxy-10-(hydroxymethyl)-13-methyl-3-oxo-2,3,6,7,8,9,10,11,12,13,14,15,16,17-tetradecahydro-1H-cyclopenta[a]phenanthren-17-yl propionate]	31 nM	40 nM
171 nM	CCC(=O)O[C@]1(C(=O)CCl)[C@@H](C)C[C@H]2[C@@H]3CCC4=CC(=O)C=C[C@]4(C)[C@@]3(F)[C@@H](O)C[C@@]21C [Clobetasol propionate]	< 1 nM	6 nM

SMILES	IC50 [1]	IC50 [2]	IC50 [3]
CCC(=O)O[C@]1(C(=O)CCl)CC[C@H]2[C@@H]3CCC4=CC(=O)CC[C@]4(CO)[C@H]3[C@@H](O)C[C@@]21C [Compound 1, (8S,9S,10S,11S,13S,14S,17R)-17-(2-chloroacetyl)-11-hydroxy-10-(hydroxymethyl-13-methyl-3-oxo-2,3,6,7,8,9,10,11,12,13,14,15,16,17-tetradecahydro-1H-cyclopenta[a]phenanthren-17-yl propionate]	> 1000 nM	36 nM	25 nM
